The test system of this assay is Antioxidant Response Element (ARE). The experiment in a line: ARE Assay (ARE-32 luciferase reporter cell line). The class given is cell-based. From the text:
This method provides a way to quantitate ARE activation using the ARE-32 reporter cell line available from CXR Biosciences. The ARE-32 cell line is a stable MCF7 cell line containing pGL8x-ARE (8 copies of the rat GST ARE linked to the luciferase gene) and pCDNA3.1, which contains the neomycin selectable marker. A detailed description of the ARE-32 cell line and its development and use can be found in “Generation of a Stable Antioxidant Response Element-Driven Reporter Gene Cell Line and Its Use to Show Redox-Dependent Activation of Nrf2 by Cancer Chemotherapeutic Agents.” Cancer Res 2006; 66(22): 10983-94. A general schematic for how an ARE reporter assay operates to identify agents that promote transcription off the ARE is described in U.S. Publication No. 2011/0262570.
The ARE Assay uses expanded and cryopreserved passaged stocks. The cells are expanded over 4-5 days in culture flasks and passaged every 3-4 days, when cells are approximately 80% confluent. When cells are >70% confluent or ready to seed into 96 well plates, the cells are trypsinized, seeded and grown in 96-well plates. After growing for 1 day in 96-well plates, the media is replaced with fresh treatment media (phenol red free, no FBS) and cells are treated with compounds and incubated overnight (24 hours). Post treatment, cells are rinsed with 1×PBS, lysed and receive the luciferase kit reagent and luminescence is measured.
Frozen AREC32 cells (frozen in 90% FBS and 10% DMSO) are quickly thawed and placed in a 50 ml conical tube with 25 ml plating media. Centrifuge at 1500-2000 RPM for 5 minutes. Remove media without disturbing cell pellet. Re-suspend cells in 12 ml media and add to T-75 tissue culture flask. Cells should be at >80% confluency in 4-5 days and can be split 1:3 into T-150 flasks to grow cells for seeding plates if more cells are needed.
Cells are maintained and plated in 96-well plates with plating media. Subculture (passage cells) every 3-4 days or when ˜75-80% confluent. To passage cells, aspirate media from flask and add 6 ml 0.25% trypsin. Tilt flask in all directions to distribute the trypsin over the bottom of the flask and place in incubator. After 2-3 minutes observe cells under microscope to see if detached. If cells have not detached completely place in incubator for an additional 2-3 minutes. Once detached, add 6 ml maintenance media to neutralize trypsin and pipet into centrifuge tube. Centrifuge at 1200 RPM for 5 minutes. Remove media without disturbing cell pellet. Re-suspend pellet in 12 ml maintenance media and add to flask. If splitting or detaching cells from a T-150 flask double all volumes and follow same procedures.
Aspirate media from flask and add appropriate volume of 0.25% trypsin depending on size of flask (6 ml for T-75 and 12 ml for T-150 flask). Swirl flask to distribute trypsin on bottom of flask and return to incubator for 2-3 minutes. Observe cells under microscope. If cells have not detached completely place in incubator for an additional 2-3 minutes. Once cells are detached add DMEM equal to the volume of trypsin, mix gently and place in centrifuge tube. Centrifuge at […] for 5 minutes. Aspirate media without disturbing cell pellet. Re-suspend pellet in 10 ml DMEM. Dilute the cells 1:5 using 50 μl cells+200 μl DMEM. Use 20 μl of this dilution and 20 μl 0.4% trypan blue. Mix and add 10 μl/chamber to disposable hemocytometer and insert into Countess II Instrument. Non-viable cells will be blue, viable cells will be unstained. Cell seeding density may vary from ˜10,000 cells/well or more depending on cell passage growth. Cell density should be approx. 70-80% on day of treatment/dosing. […] Media must be free of phenol red.
Tert-Butylhydroquinone (tBHQ) (Aldrich, Cat #11,294-1). Prepare 100 mM stock (1M=166.21 mg/ml; 100 mM=16.62 mg/ml). Dilute to 750 μM (1:133) using 30 μl of 100 mM tBHQ and […] treatment media. 2 μl of positive control should yield a final concentration of 7.5 μM in the test well. […]
(A reporter such as luciferase makes a cellular process visible.)

Where “and” joins values, the source holds several entries; their conditions need not be identical. Identical values can stand only once. No end group written: not given here. *: point of attachment. Palmitoyl = CCCCCCCCCCCCCCCC(=O)*

Take acetyl tetrapeptide-11 (Ac-PPYL): the “Average Net Luminescence Ac-PPYL” value runs as follows: (Ac-PPYL 0.05 ppm alone) 12 and 19.4 and 20; (Ac-PPYL 0.1 ppm alone) 22 and 15.7; (Ac-PPYL 0.5 ppm alone) 14.7 and 26; (Ac-PPYL 1 ppm alone) 56 and 51; (Ac-PPYL 2 ppm alone) 64 and 61; (Table 3, Ac-ppyl 2 ppm alone) 57.

With `NC(=O)c1cccnc1` [N, niacinamide, reference compound], the “Average Net Luminescence N” value is, setting by setting: (N 1 ppm alone) 8; (N 10 ppm alone) 12; (N 50 ppm alone) 45; (N 500 ppm alone) 53; (Table 3, N 500 ppm alone) 45.

With “palmitoyl pentapeptide-4 (Palmitoyl-KTTKS) [Pal-KTTKS]”, the “Average Net Luminescence Pal-kttks” value (Pal-KTTKS 1 ppm alone) is reported as 24.3 and the “Average Net Luminescence Pal-kttks” value (Table 3, Pal-kttks 1 ppm alone) is 21.

The values are drawn from patent US11771637B2, “Skin care composition and method of using the same” (The Procter & Gamble Company, priority 2021, dated 2023).
